Here are results for 14 molecules from PubChem BioAssay (NCI).

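Exposure lasted 48 hours, with cells grown in 96-well plates and compounds tested at five concentrations. Abbreviation: GI50, concentration required for 50% inhibition of growth. TGI is the concentration that stops growth completely.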 A value given as a limit tells only on which side of the number the result lay.

Test systems include KM12 colon; MCF7 breast; SN12C renal; HOP-92 NSCLC; K-562 leukemia; OVCAR-4 ovarian.
Holding throughout (assay): inhibition of tumour cell growth, NCI panel, 48 h

With `C[As](C)SCC(COC(=O)c1ccccc1)OC(=O)c1ccccc1` (centres undefined), the GI50 in the assay with KM12 colon was 0.384 µM; with MCF7 breast, 0.0462 µM; in the assay with SN12C renal, 0.23 µM; with HOP-92 NSCLC it was 0.216 µM; in the assay with K-562 leukemia it was less than 0.0205 µM; with OVCAR-4 ovarian, 1.74 µM. Also, the TGI in the assay with KM12 colon was 7.92 µM; in the assay with MCF7 breast, 0.312 µM; in the assay on SN12C renal, 1.23 µM; in the assay on HOP-92 NSCLC, 1.74 µM; in the assay with K-562 leukemia it was 1.22 µM; in the assay with OVCAR-4 ovarian, more than 32.2 µM.

Regarding `Nc1cc2[nH]c(=O)c3cc(Cl)ccc3c2cc1Cl`, the TGI with KM12 colon was more than 100 µM; in the assay with MCF7 breast, 13.8 µM; in the assay with SN12C renal it was more than 100 µM; in the assay on K-562 leukemia, more than 100 µM; in the assay with OVCAR-4 ovarian, more than 100 µM.

Consider `COc1c(C)cnc(Cn2cnc3c(Cl)nc(N)nc32)c1C`, for which the GI50 in the assay on KM12 colon is 0.0854 µM; with MCF7 breast it was 0.0402 µM; in the assay with SN12C renal, 0.336 µM; in the assay with HOP-92 NSCLC it was 0.467 µM; with K-562 leukemia, 0.187 µM; in the assay with OVCAR-4 ovarian it was 7.17 µM. In addition, the TGI was more than 100 µM in the assay on MCF7 breast; more than 100 µM with SN12C renal; 2.8 µM in the assay on HOP-92 NSCLC; more than 100 µM in the assay on K-562 leukemia; more than 100 µM with OVCAR-4 ovarian.

`C/C=C\C(C)=C/C(C)C(=O)CC(O)CC1CC(=O)NC(=O)C1` (centres undefined): the TGI in the assay with KM12 colon, in the assay with MCF7 breast, in the assay with SN12C renal, in the assay on HOP-92 NSCLC, with K-562 leukemia and in the assay on OVCAR-4 ovarian was more than 100 µM throughout.

On to `CCCCc1ccc(C(N)=O)nc1`, for which the GI50 with KM12 colon, in the assay on MCF7 breast, with SN12C renal, in the assay on HOP-92 NSCLC, in the assay with K-562 leukemia and in the assay with OVCAR-4 ovarian was more than 100 µM each time. The TGI in the assay on KM12 colon, in the assay with MCF7 breast, with SN12C renal, in the assay on HOP-92 NSCLC, in the assay with K-562 leukemia and in the assay on OVCAR-4 ovarian was more than 100 µM in each case.

Take `O=C(CN1C(=O)c2ccccc2C1=O)NC1(C(=O)O)CCCC1`: the TGI with KM12 colon, in the assay with MCF7 breast, in the assay on SN12C renal, in the assay on K-562 leukemia and in the assay on OVCAR-4 ovarian was more than 100 µM throughout.

With `C=C1C(=O)O[C@H]2[C@H]1CC/C(Cn1cc(CNC(=O)c3cc4ccccc4[nH]3)nn1)=C\CC[C@@]1(C)O[C@@H]21`, the GI50 in the assay on KM12 colon is 11.4 µM; in the assay with MCF7 breast, 2.94 µM; in the assay on SN12C renal, 1.97 µM; with HOP-92 NSCLC it was 1.53 µM; with OVCAR-4 ovarian, 4.52 µM. The TGI in the assay on KM12 colon came to 26.7 µM; with MCF7 breast, 15.4 µM; with SN12C renal it was 4.66 µM; in the assay on HOP-92 NSCLC, 3.16 µM; in the assay with OVCAR-4 ovarian, 17.1 µM.

`Cc1cccc(NC(=O)c2sc3nc4c(cc3c2N)CCC4)c1C`: the GI50 in the assay on KM12 colon is 0.407 µM; with MCF7 breast it was 0.261 µM; with SN12C renal, 0.888 µM; with HOP-92 NSCLC, 0.449 µM; in the assay on OVCAR-4 ovarian, 1.33 µM. For the same molecule, the TGI in the assay with KM12 colon is 41 µM; in the assay on MCF7 breast, 13.6 µM; in the assay with SN12C renal it was more than 100 µM; with HOP-92 NSCLC, 19 µM; in the assay with OVCAR-4 ovarian it was 22.8 µM.

Regarding `COc1cc(OC)c(-c2oc3ccccc3c(=O)c2O)c(OC)c1`, the TGI in the assay on KM12 colon, with MCF7 breast, in the assay on SN12C renal, in the assay with HOP-92 NSCLC and in the assay with K-562 leukemia was more than 100 µM in each case.

On to `O=C(/C=C\c1ccc(Cl)c(Cl)c1)c1ccccc1`, for which the GI50 in the assay with KM12 colon was 3.07 µM; in the assay with MCF7 breast it was 1.89 µM; in the assay with SN12C renal, 6.77 µM; in the assay with K-562 leukemia, 2.82 µM; in the assay with OVCAR-4 ovarian, 8.83 µM. Further, the TGI stood at 8.88 µM in the assay with KM12 colon; 5.58 µM in the assay on MCF7 breast; 19.9 µM in the assay with SN12C renal; 8.1 µM in the assay on K-562 leukemia; 21.3 µM in the assay on OVCAR-4 ovarian.

As for `Oc1c(Br)cc(Br)c2cccnc12`, the GI50 is 4.17 µM with KM12 colon, 4.48 µM in the assay with MCF7 breast, 3.23 µM in the assay with SN12C renal and 4.09 µM in the assay with OVCAR-4 ovarian. For the same molecule, the TGI was 23.4 µM in the assay on KM12 colon, more than 100 µM in the assay with MCF7 breast, 35.2 µM with SN12C renal and 97 µM in the assay with OVCAR-4 ovarian.

As for `Cc1nn(-c2ccccc2)c2ncc3c(c12)C(=O)N(Cc1ccccc1)C3=O`, the GI50 was more than 100 µM in the assay on KM12 colon; more than 100 µM with MCF7 breast; 9.29 µM with SN12C renal; 3.73 µM in the assay with K-562 leukemia; 2.18 µM with OVCAR-4 ovarian. Also, the TGI with KM12 colon was more than 100 µM; with MCF7 breast, more than 100 µM; in the assay with SN12C renal it was more than 100 µM; with K-562 leukemia, 41.9 µM; with OVCAR-4 ovarian, 5.48 µM.

Turning to `CNCc1ccc(C)c(NC(=O)c2ccc(Nc3nc(-c4ccccc4)c4ccccc4n3)cc2)c1`, the GI50 in the assay with KM12 colon was 1.97 µM; in the assay with MCF7 breast it was 1.58 µM; in the assay with HOP-92 NSCLC, 0.687 µM; in the assay with K-562 leukemia, 1.91 µM; in the assay with OVCAR-4 ovarian, 1.84 µM. Moreover, the TGI with KM12 colon is 3.88 µM; in the assay with MCF7 breast, 3.25 µM; in the assay on HOP-92 NSCLC, 3.24 µM; with K-562 leukemia it was 4.54 µM; in the assay on OVCAR-4 ovarian, 4.79 µM.

For the molecule `Oc1ccc(-c2nc(-c3ccc4oc5ccc(-c6[nH]c(-c7ccc(O)cc7)nc6-c6ccccc6)cc5c4c3)c(-c3ccccc3)[nH]2)cc1`, the GI50 is 2.88 µM with KM12 colon; 2.99 µM in the assay on MCF7 breast; 3.39 µM in the assay with SN12C renal; 2.19 µM in the assay with HOP-92 NSCLC; 18 µM in the assay with OVCAR-4 ovarian. Also, the TGI with KM12 colon came out at 7.92 µM; in the assay with MCF7 breast, 73.9 µM; in the assay with SN12C renal it was 27 µM; with HOP-92 NSCLC, 6.53 µM; in the assay with OVCAR-4 ovarian, 96.9 µM.
